Assays:
CYP2C9 mRNA = CYP2C9 mRNA level in human hepatocytes after 48 h treatment (RT-PCR); conditions: plated cryopreserved human hepatocytes, IC50, suppression of CYP2C9 mRNA expression, 1.25–2500 nM
[1] = set-up: method as in PMID 25048520, PMID 22752008; conditions: up to 1 µM; cited from earlier work
[2] = system: CYP1A2 mRNA (suppression of expression); assay: CYP1A2 mRNA level in human hepatocytes after 48 h treatment (RT-PCR); type: cell-based; conditions: 1.25–2500 nM
Source text: 12.5 (Systat Software, Inc.; San Jose, CA, USA). […] 1.1 (Systat Software, Inc.).

recombinant human CYP3A4 = system: recombinant human CYP3A4; set-up: method as in PMID 25048520, PMID 22752008; conditions: cited from earlier work
CYP3A4 = system: CYP3A4
Description: Samples were incubated for 48 h at 37 °C in 5% CO2, and the medium was exchanged with 250 μL of fresh medium containing drugs or the vehicle every 24 h.
The effects of mertansine on CYP1A2, CYP2B6, and CYP3A4 activities were evaluated. […] Mixtures were vortexed for 2 min and then centrifuged at 13,000 g for 4 min at 4 °C. The supernatant (40 µL) was diluted with 60 µL of deionized water and then mixed for 2 min by vortexing. An aliquot (5 µL) was analyzed using LC-MS/MS [37], and CYP1A2, CYP2B6, and CYP3A4 enzyme activities were expressed as formation rates (pmol/million cells/min).
The percentage changes in enzymatic activities were calculated as (CYP activity with test compound treatment/CYP activity with vehicle control treatment) × 100. The IC50 (the concentration of the inhibitor needed for half-maximal inhibition) values were calculated using SigmaPlot ver. […] Ki (the inhibition constant) and the inhibition mode of UGT1A1, UGT1A3, and UGT1A4 activities were determined using Enzyme Kinetics ver. 1.1 (Systat Software, Inc.).

CYP3A4 mRNA = assay: in vitro; conditions: human, hepatocytes, IC50, suppression of CYP3A4 mRNA expression, 1.25–2500 nM
[3] = Mean ± SD of three human hepatocyte lots, 48 h
[4] = human hepatocytes Lot 319, 48 h
[5] = human hepatocytes Lot 321, 48 h
[6] = human hepatocytes Lot 361, 48 h

Compound: COc1cc2cc(c1Cl)N(C)C(=O)CC(OC(=O)C(C)N(C)C(=O)CCS)C1(C)OC1C(C)C1CC(O)(NC(=O)O1)C(OC)C=CC=C(C)C2 (centres unmarked) [mertansine, Mertansine]
- IC50 at 48 h (CYP2C9 mRNA; [3]): 578 ± 452 nM
- IC50 at 48 h (CYP2C9 mRNA; [4]): 788 nM
- IC50 at 48 h (CYP2C9 mRNA; [5]): 888 nM
- IC50 at 48 h (CYP2C9 mRNA; [6]): 59.6 nM
- Induction potential [1]: no induction potential
- IC50 at 48 h [2, 3]: 93.7 ± 109 nM
- IC50 at 48 h [2, 4]: 220 nM
- IC50 at 48 h [2, 5]: 34.3 nM
- IC50 at 48 h [2, 6]: 27.3 nM
- KI (inactivation) (recombinant human CYP3A4; recombinant human CYP3A4, irreversible inhibition, read-out: Ki, inactivation of midazolam 1′-hydroxylation): 3400 nM
- kinact, inactivation of midazolam 1′-hydroxylation (recombinant human CYP3A4; recombinant human CYP3A4): 0.058 min⁻¹
- Mean decrease of CYP3A4-mediated midazolam 1′-hydroxylase activity (CYP3A4; human, hepatocytes): 39.7%
- Decrease of CYP3A4-mediated midazolam 1′-hydroxylase activity compared to vehicle (CYP3A4; mertansine 48 h, three human hepatocytes): 30.8–62.7%
- IC50 (CYP3A4 mRNA; [3]): 161 ± 167 nM
- IC50 (CYP3A4 mRNA; [4]): 344 nM
- IC50 (CYP3A4 mRNA; [5]): 120 nM
- IC50 (CYP3A4 mRNA; [6]): 16.8 nM

— PMC7150891, “Mertansine Inhibits mRNA Expression and Enzyme Activities of Cytochrome P450s and Uridine 5′-Diphospho-Glucuronosyltransferases in Human Hepatocytes and Liver Microsomes” (Pharmaceutics, 2020)
